# Numbers after ± are expanded uncertainties.
# Test: activity coefficient (dimensionless); of the first substance listed, at infinite dilution; xn = mol fraction of the nth substance listed
# Conditions: Liquid, Chromatography, x1 = 0
activity coefficient (318.15 K),activity coefficient (328.15 K),activity coefficient (338.15 K),activity coefficient (348.15 K),activity coefficient (358.15 K),activity coefficient (368.15 K),Compound
0.65 ± 0.044,0.658 ± 0.045,0.669 ± 0.045,0.677 ± 0.046,0.686 ± 0.046,0.694 ± 0.047,CCO [ethanol] + CCCCn1cc[n+](C)c1.N#CN=C=[N-]
2.57 ± 0.17,2.68 ± 0.18,2.79 ± 0.19,2.91 ± 0.2,3 ± 0.2,3.11 ± 0.21,CCOC(C)=O [ethyl acetate] + CCCCn1cc[n+](C)c1.N#CN=C=[N-]
4.78 ± 0.33,4.89 ± 0.33,5.07 ± 0.35,5.19 ± 0.35,5.33 ± 0.36,5.55 ± 0.38,CCc1ccccc1 [ethylbenzene] + CCCCn1cc[n+](C)c1.N#CN=C=[N-]
91 ± 6.2,87.2 ± 6,83.9 ± 5.8,80.6 ± 5.5,77.8 ± 5.3,75.3 ± 5.2,CCCCCCC [heptane] + CCCCn1cc[n+](C)c1.N#CN=C=[N-]
26.4 ± 1.8,25.9 ± 1.8,25.5 ± 1.7,25.1 ± 1.7,24.7 ± 1.7,24.4 ± 1.7,C=CCCCC [hex-1-ene] + CCCCn1cc[n+](C)c1.N#CN=C=[N-]
61.6 ± 4.2,59.3 ± 4.1,57.1 ± 3.9,55.2 ± 3.8,53.4 ± 3.7,51.7 ± 3.5,CCCCCC [hexane] + CCCCn1cc[n+](C)c1.N#CN=C=[N-]
7.3 ± 0.5,7.52 ± 0.51,7.72 ± 0.53,7.93 ± 0.54,8.11 ± 0.55,8.3 ± 0.6,CC(C)c1ccccc1 [isopropylbenzene] + CCCCn1cc[n+](C)c1.N#CN=C=[N-]
0.399 ± 0.034,0.408 ± 0.034,0.42 ± 0.035,0.431 ± 0.035,0.442 ± 0.036,0.46 ± 0.036,CO [methanol] + CCCCn1cc[n+](C)c1.N#CN=C=[N-]
3.46 ± 0.24,3.61 ± 0.25,3.75 ± 0.26,3.9 ± 0.27,4.03 ± 0.27,4.17 ± 0.28,CCCC(=O)OC [methyl butanoate] + CCCCn1cc[n+](C)c1.N#CN=C=[N-]
1.61 ± 0.11,1.71 ± 0.11,1.81 ± 0.12,1.9 ± 0.13,1.99 ± 0.14,2.09 ± 0.14,COC(C)=O [methyl ethanoate] + CCCCn1cc[n+](C)c1.N#CN=C=[N-]
2.36 ± 0.16,2.47 ± 0.17,2.59 ± 0.18,2.7 ± 0.18,2.81 ± 0.19,2.92 ± 0.2,CCC(=O)OC [methyl propanoate] + CCCCn1cc[n+](C)c1.N#CN=C=[N-]
40.2 ± 2.8,38.3 ± 2.6,36.5 ± 2.5,35 ± 2.4,33.6 ± 2.3,32.4 ± 2.2,CC1CCCCC1 [methylcyclohexane] + CCCCn1cc[n+](C)c1.N#CN=C=[N-]
207 ± 14,193 ± 13,181 ± 12,171 ± 12,162 ± 11,153 ± 11,CCCCCCCCC [nonane] + CCCCn1cc[n+](C)c1.N#CN=C=[N-]
60.1 ± 4.1,58.9 ± 4,58 ± 4,57 ± 3.9,56.2 ± 3.8,55.5 ± 3.8,C=CCCCCCC [oct-1-ene] + CCCCn1cc[n+](C)c1.N#CN=C=[N-]
137 ± 9,129 ± 9,123 ± 8,116 ± 8,111 ± 8,106 ± 7,CCCCCCCC [octane] + CCCCn1cc[n+](C)c1.N#CN=C=[N-]
2 ± 0.14,2.11 ± 0.14,2.22 ± 0.15,2.32 ± 0.16,2.43 ± 0.17,2.53 ± 0.17,CCCC(C)=O [pentan-2-one] + CCCCn1cc[n+](C)c1.N#CN=C=[N-]
2.04 ± 0.14,2.16 ± 0.15,2.27 ± 0.15,2.38 ± 0.16,2.49 ± 0.17,2.6 ± 0.18,CCC(=O)CC [pentan-3-one] + CCCCn1cc[n+](C)c1.N#CN=C=[N-]
41.7 ± 2.9,40.1 ± 2.7,38.6 ± 2.6,37.3 ± 2.6,36.1 ± 2.5,34.9 ± 2.4,CCCCC [pentane] + CCCCn1cc[n+](C)c1.N#CN=C=[N-]
0.826 ± 0.053,0.835 ± 0.054,0.844 ± 0.054,0.853 ± 0.055,0.862 ± 0.055,0.871 ± 0.056,CCCO [propan-1-ol] + CCCCn1cc[n+](C)c1.N#CN=C=[N-]
0.921 ± 0.058,0.93 ± 0.059,0.94 ± 0.059,0.948 ± 0.06,0.956 ± 0.06,0.963 ± 0.061,CC(C)O [propan-2-ol] + CCCCn1cc[n+](C)c1.N#CN=C=[N-]
7.36 ± 0.5,7.57 ± 0.52,7.78 ± 0.53,7.98 ± 0.54,8.15 ± 0.56,8.35 ± 0.57,CCCc1ccccc1 [propylbenzene] + CCCCn1cc[n+](C)c1.N#CN=C=[N-]
2.15 ± 0.15,2.28 ± 0.16,2.41 ± 0.16,2.53 ± 0.17,2.65 ± 0.18,2.78 ± 0.19,C=Cc1ccccc1 [styrene] + CCCCn1cc[n+](C)c1.N#CN=C=[N-]
1.55 ± 0.1,1.63 ± 0.11,1.71 ± 0.11,1.78 ± 0.12,1.85 ± 0.12,1.93 ± 0.13,C1CCOC1 [tetrahydrofuran] + CCCCn1cc[n+](C)c1.N#CN=C=[N-]
1.14 ± 0.07,1.22 ± 0.08,1.29 ± 0.08,1.36 ± 0.09,1.43 ± 0.09,1.5 ± 0.1,c1ccsc1 [thiophene] + CCCCn1cc[n+](C)c1.N#CN=C=[N-]
0.31 ± 0.03,0.323 ± 0.032,0.336 ± 0.032,0.349 ± 0.032,0.363 ± 0.033,0.376 ± 0.033,O [water] + CCCCn1cc[n+](C)c1.N#CN=C=[N-]

Compound,activity coefficient (318.15 K),activity coefficient (328.15 K),activity coefficient (338.15 K),activity coefficient (348.15 K),activity coefficient (358.15 K),activity coefficient (368.15 K)
c1ccncc1 [pyridine] + CCCCn1cc[n+](C)c1.N#CN=C=[N-],0.845 ± 0.054,0.89 ± 0.06,0.94 ± 0.059,0.985 ± 0.062,1.03 ± 0.06,1.08 ± 0.07
Cc1ccccc1 [toluene] + CCCCn1cc[n+](C)c1.N#CN=C=[N-],2.89 ± 0.2,3.01 ± 0.2,3.15 ± 0.21,3.27 ± 0.22,3.4 ± 0.2,3.54 ± 0.24
